Read-outs that look alike come from different tables or passages of the source.
Tests used:
pERK in AGS cells = experiment: ERK phosphorylation cell assay, AGS; assay type: cell-based; conditions: 3 hours compound incubation, read-out: pERK AGS_IC50
Procedure: (§1) • Day 1: AGS cells were seeded into a 384-well cell culture plate and incubated overnight at 37° C. with 5% CO2 in a cell culture incubator. • Day 2: Compounds were added to the plate using an Echo550 liquid handler, followed by incubation at 37° C. with 5% CO2 in a cell culture incubator for 3 hours. Subsequently, the cells were fixed with paraformaldehyde, permeabilized with methanol, and blocked with blocking buffer. A primary antibody mixture (rabbit anti-pERK, mouse anti-GAPDH) was added, and the plate was incubated overnight at 4° C. • Day 3: The primary antibodies were removed, and a secondary antibody mixture (goat anti-rabbit 800CW, goat anti-mouse 680RD) was added. The plate was incubated at room temperature in the dark. After three washes with PBST, the plate was inverted and centrifuged for 1 minute. Fluorescence signal values were read using an Odyssey CLx imaging system.
(§2) [formula] • Negative control: DMSO • Positive control: 10 μM Reference • Fitted using XLFit 5.0 with the following parameters:
(§3) [formula] • X: Log of compound concentration • Y: Mean relative expression levels of p-ERK across replicates

pERK in AsPC-1 cells = experiment: ERK phosphorylation cell assay, AsPC-1; assay type: cell-based; conditions: read-out: pERK AsPC-1_IC50
Procedure: [Worded in the source for another cell line; this cell line is reported under the same test.] as §1, §2, §3

[1] = Homo sapiens, ASPC1, AsPC-1 cells

Molecule	IC50 (pERK in AGS cells)	IC50 (pERK in AsPC-1 cells; AsPC-1 cells)	IC50 (pERK in AsPC-1 cells; [1])	IC50 (pERK in AGS cells; Homo sapiens, AGS, 3 h)
13-((2,2-difluoro-6-methylenetetrahydro-1H-pyrazin-7a(5H)-yl)methoxy)-3,15-difluoro-11-((R)-3-hydroxy-3-methylpiperidin-1-yl)-4,5,6,7,8,9-hexahydronaphtho[1′,8′:4,5,6][1]azacycloundecano[2,3-g]quinazolin-17-ol [Example 38]	> 10 µM	> 10 µM	–	–
C=C1CN2CCC[C@@]2(COc2nc(N3CCC[C@@](C)(O)C3)c3cc4c(c(F)c3n2)-c2cc(O)cc3ccc(F)c(c23)CCOCCN4)C1 (single isomer, unassigned) [Example 42C]	–	0.101 µM	–	–
O=C1CCCc2c(F)ccc3cc(O)cc(c23)-c2c(cc3c(N4CC5CCC(C4)N5)nc(OC[C@@]45CCCN4C[C@H](F)C5)nc3c2F)N1 [Example 1, 10-((1R,5S)-3,8-Diazabicyclo[3.2.1]octan-3-yl)-3,14-difluoro-12-(((2R,7aS)-2-fluorotetrahydro-1H-pyrazin-7a(5H)-yl)methoxy)-16-hydroxy-5,6-dihydro-4H-naphtho[1′,8′:4,5,6]acridin[2,3-g]quinazolin-7(8H)-one]	–	–	2.45 µM	2.15 µM
Oc1cc2c3c(c(F)ccc3c1)CCCCNc1cc3c(N4CC5CCC(C4)N5)nc(OC[C@@]45CCCN4C[C@H](F)C5)nc3c(F)c1-2 [Example 2, 10-((1R,5S)-3,8-Diazabicyclo[3.2.1]octan-3-yl)-3,14-difluoro-12-(((2R,7aS)-2-fluorotetrahydro-1H-pyrazin-7a(5H)-yl)methoxy)-5,6,7,8-tetrahydro-4H-naphtho[1′,8′:4,5,6]acridin[2,3-g]quinazolin-16-ol]	–	–	0.71 µM	0.154 µM
O=C1CCCCCc2c(F)ccc3cc(O)cc(c23)-c2c(cc3c(N4CC5CCC(C4)N5)nc(OC[C@@]45CCCN4C[C@H](F)C5)nc3c2F)N1 [Example 9A, 12-((1R,5S)-3,8-diazabicyclo[3.2.1]octan-3-yl)-3,16-difluoro-14-(((2R,7aS)-2-fluorotetrahydro-1H-pyrazin-7a(5H)-yl)methoxy)-18-hydroxy-5,6,7,8-tetrahydro-4H-naphtho[1′,8′:4,5,6][1]azacyclododecino[2,3-g]quinazolin-9(10H)-one]	0.687 µM	1.96 µM	–	–
O=C1CCCCCCCCc2c(F)ccc3cc(O)cc(c23)-c2c(cc3c(N4CC5CCC(C4)N5)nc(OCC45CCCN4CC(F)C5)nc3c2F)N1 [Example 10, 15-((1R,5S)-3,8-diazabicyclo[3.2.1]octan-3-yl)-3,19-difluoro-17-(((2R,7aS)-2-fluorotetrahydro-1H-pyrazin-7a(5H)-yl)methoxy)-21-hydroxy-4,5,6,7,8,9,10,11-octahydronaphtho[1′,8′:4,5,6][1]azacyclopentadecano[2,3-g]quinazolin-12(13H)-one]	> 10 µM	> 10 µM	–	–
O=C1NCCCc2c(F)ccc3cc(O)cc(c23)-c2c1cc1c(N3CC4CCC(C3)N4)nc(OC[C@@]34CCCN3C[C@H](F)C4)nc1c2F [Example 12, 10-((1R,5S)-3,8-diazabicyclo[3.2.1]oct-3-yl)-3,14-difluoro-12-(((2R,7aS)-2-fluorotetrahydro-1H-pyrazin-7a(5H)-yl)methoxy)-16-hydroxy-4,5,6,7-tetrahydro-8H-naphtho[1′,8′:5,6,7]acredo [3,4-g]quinazolin-8-one]	–	–	> 10 µM	5.43 µM
CCN1CCCc2c(F)ccc3cc(O)cc(c23)-c2c(cc3c(N4CC5CCC(C4)N5)nc(OC[C@@]45CCCN4C[C@H](F)C5)nc3c2F)C1=O [Example 13, 10-((1R,5S)-3,8-diazabicyclo[3.2.1]oct-3-yl)-7-ethyl-3,14-difluoro-12-(((2R,7aS)-2-fluorotetrahydro-1H-pyrazin-7a(5H)-yl)methoxy)-16-hydroxy-4,5,6,7-tetrahydro-8H-naphtho[1′,8′:5,6,7]acrylo[3,4-g]quinazolin-8-one]	–	–	8.04 µM	3.95 µM
O=C1NCCCCCc2c(F)ccc3cc(O)cc(c23)-c2c1cc1c(N3CC4CCC(C3)N4)nc(OC[C@@]34CCCN3C[C@H](F)C4)nc1c2F [Example 14, 12-((1R,5S)-3,8-diazabicyclo[3.2.1]oct-3-yl)-3,16-difluoro-14-(((2R,7aS)-2-fluorotetrahydro-1H-pyrazin-7a(5H)-yl)methoxy)-18-hydroxy-4,5,6,7,8,9-hexahydro-10H-naphtho[1′,8′:5,6,7][1]azacyclododecano[3,4-g]quinazolin-10-one]	–	–	3.84 µM	2.77 µM
O=C1CCCc2c(F)ccc3cc(O)cc(c23)-c2c(cc3c(N4CC5CCC(C4)N5)nc(OCC(F)(F)F)nc3c2F)N1 [Example 15, 10-((1R,5S)-3,8-diazabicyclo[3.2.1]octan-3-yl)-3,14-difluoro-16-hydroxy-12-(2,2,2-trifluoroethoxy)-5,6-dihydro-4H-naphtho[1′,8′:4,5,6]azacycloundecino[2,3-g]quinazolin-7(8H)-one]	–	–	–	> 10 µM
C[C@@]1(O)CCCN(c2nc(OCC(F)(F)F)nc3c(F)c4c(cc23)NCCCCCc2c(F)ccc3cc(O)cc-4c23)C1 [Example 17A, (R)-3,15-difluoro-11-(3-hydroxy-3-methylpiperidin-1-yl)-13-(2,2,2-trifluoroethoxy)-4,5,6,7,8,9-hexahydro-naphtho[1′,8′:4,5,6111]azacycloundecino[2,3-g]quinazoline-17-ol]	–	–	> 10 µM	5.27 µM
CC1(O)CCCN(c2nc(OCC(F)(F)F)nc3c(F)c4c(cc23)NCCCCCc2c(F)ccc3cc(O)cc-4c23)C1 [Example 17B, (R)-3,15-difluoro-11-(3-hydroxy-3-methylpiperidin-1-yl)-13-(2,2,2-trifluoroethoxy)-4,5,6,7,8,9-hexahydro-naphtho[1′,8′:4,5,6111]azacycloundecino[2,3-g]quinazoline-17-ol]	> 10 µM	> 10 µM	–	–
C[C@@]1(O)CCCN(c2nc(OCC34CCC(CC3)OC4)nc3c(F)c4c(cc23)NCCCCCc2c(F)ccc3cc(O)cc-4c23)C1 [Example 19]	–	–	> 10 µM	> 10 µM
C[C@@]1(O)CCCN(c2nc(OCC34CCCN3CC(=C(F)F)C4)nc3c(F)c4c(cc23)NCCCCCc2c(F)ccc3cc(O)cc-4c23)C1 (stereo partly shown) [Example 29]	–	–	4.53 µM	5.42 µM
C=C1CN2CC(=C)CC2(COc2nc(N3CCC[C@@](C)(O)C3)c3cc4c(c(F)c3n2)-c2cc(O)cc3ccc(F)c(c23)CCCCCN4)C1 [Example 31]	–	–	0.225 µM	0.136 µM
C=C1CN2CCCC2(COc2nc(N3CCC[C@@](C)(O)C3)c3cc4c(c(F)c3n2)-c2cc(O)cc3ccc(F)c(c23)CC/C=C\CN4)C1 (stereo partly drawn) [Example 32, (Z)-3,15-difluoro-11-((R)-3-hydroxy-3-methylpiperidin-1-yl)-13-((2-methylenetetrahydro-1H-pyrazin-7a(5H)-yl)methoxy)-4,5,8,9-tetrahydronaphtho[1′,8′:4,5,6][1]azacycloondecano[2,3-g]quinazolin-17-ol]	–	–	1.14 µM	0.652 µM

The remaining lines, values ahead:

IC50 (pERK in AGS cells)	IC50 (pERK in AsPC-1 cells; AsPC-1 cells)	IC50 (pERK in AsPC-1 cells; [1])	IC50 (pERK in AGS cells; Homo sapiens, AGS, 3 h)	Molecule
0.517 µM	4.62 µM	–	–	C[C@@]1(O)CCCN(c2nc(OCC34CCCN3CCC4)nc3c(F)c4c(cc23)NCCCCCc2c(F)ccc3cc(O)cc-4c23)C1 (single isomer, unassigned) [Example 21B]
1.92 µM	7.18 µM	–	–	C[C@@]1(O)CCCN(c2nc(OCC34CCCN3C[C@]3(C4)CC3(F)F)nc3c(F)c4c(cc23)NCCCCCc2c(F)ccc3cc(O)cc-4c23)C1 (single isomer, unassigned) [Example 24B]
2 µM	3.1 µM	–	–	C[C@@]1(O)CCCN(c2nc(OC[C@@]34CCCN3C[C@H](F)C4)nc3c(F)c4c(cc23)NCCOCCc2c(F)ccc3cccc-4c23)C1 (single isomer, unassigned) [Example 52A]
1.14 µM	–	> 10 µM	–	C=C1CN2CC(F)(F)CC2(COc2nc(N3CCC[C@@](C)(O)C3)c3cc4c(c(F)c3n2)-c2cc(O)cc3ccc(F)c(c23)CCCCCN4)C1 (single isomer, unassigned) [Example 57A]
> 10 µM	> 10 µM	–	–	C=C1CN2CC(F)(F)CC2(COc2nc(N3CCC[C@@](C)(O)C3)c3cc4c(c(F)c3n2)-c2cc(O)cc3ccc(F)c(c23)CCCCCN4)C1 (single isomer, unassigned) [Example 57B]
–	–	> 10 µM	> 10 µM	C[C@@]1(O)CCCN(c2nc(OCC34CCC(CC3)CO4)nc3c(F)c4c(cc23)NCCCCCc2c(F)ccc3cc(O)cc-4c23)C1 [Example 18A]
> 10 µM	> 10 µM	–	–	CC1(O)CCCN(c2nc(OCC34CCC(CC3)CO4)nc3c(F)c4c(cc23)NCCCCCc2c(F)ccc3cc(O)cc-4c23)C1 [Example 18B, (R)-13-(((2-oxabicyclo[2.2.2]octan-1-yl)methoxy)-3,15-difluoro-11-(3-hydroxy-3-methylpiperidin-1-yl)-4,5,6,7,8,9-hexahydro-naphtho[1′,8′:4,5,6][1]azacycloundecino[2,3-g]quinazoline-17-ol]
–	–	> 10 µM	> 10 µM	COC12CCC(COc3nc(N4CCC[C@@](C)(O)C4)c4cc5c(c(F)c4n3)-c3cc(O)cc4ccc(F)c(c34)CCCCCN5)(CC1)CC2 [Example 20A]

From patent US20260049089A1, “KRAS INHIBITOR COMPOUND” (SHANGHAI APEIRON THERAPEUTICS COMPANY LIMITED, priority 2022, published 2026)
